From BigSolDB 2.1

Nc1ccc(S(=O)(=O)[O-])c(N)c1.[Na+]
solubility (mole fraction)
Conditions | in isopropanol | in methanol | in propylene glycol
273.15 K | 2.2e-05 | 0.000977 | 0.000831
278.15 K | 2.78e-05 | 0.00109 | 0.00121
283.15 K | 3.51e-05 | 0.00145 | 0.00145
288.15 K | 4.43e-05 | 0.00173 | 0.00196
293.15 K | 5.57e-05 | 0.00228 | 0.00235
298.15 K | 6.99e-05 | 0.00274 | 0.0028
303.15 K | 8.76e-05 | 0.00318 | 0.00359
308.15 K | 0.000109 | 0.00395 | 0.00431
313.15 K | 0.000136 | 0.00466 | 0.00577
318.15 K | 0.00017 | 0.00558 | 0.00749
323.15 K | 0.000211 | 0.00661 | 0.00963
